Several values for one entry are separate records, joined by “and”; a condition that tells them apart may be missing. Identical values can stand only once.
Assays:
[1] = test system: BTN2A−/− MIA PaCa-2 (BTN2A1/BTN2A2 KO) cells; test: Cell killing assay with BTN2A−/− MIA PaCa-2 (BTN2A1/BTN2A2 KO) cells expressing BTN2A1/BTN2A2 variants; conditions: cells expressing the BTN2A1 variant given as label; for Mean response (Fig. 6h, Dunnett test details): N = 6
Experimental: (§1) MIA PaCa-2 cells were infected with lentivirus bearing luciferase transgene. Luciferase-positive cells were plated at 5.0 × 10^3 cells per well in 384-well plates 1 day before transfection. All plasmids were transfected into BTN2A^−/− MIA PaCa-2 (BTN2A1/BTN2A2 KO) cells using Lipofectamine 2000 reagent. […] Stable-lite luciferase (Vazyme) was added to each well and the luciferase signal was immediately measured by using the PerkinElmer EnVision microplate reader.
(§2) Percentage of lysis was calculated using the following equation: percentage of specific lysis = (maximum luciferase − experimental luciferase)/maximum luciferase × 100.

[2] = target: T1, preconditioned BTN2A1–BTN3A1 B30.2 complex (Homo sapiens, UniProt O00481+Q7KYR7); test: ITC: pAg binding to the preconditioned BTN2A1 B30.2 and BTN3A1 B30.2 complex; conditions: ITC; Supplementary Table 4; read-out: KD (M) for phosphoantigen binding to the pre-conditioned 2A1 B30.2 and 3A1 B30.2
T1 construct: The BTN3A1 B30.2 domain was expressed and purified as described previously; 6xHis; made in house; host or cells: Escherichia coli BL21 (DE3) for BTN2A1 B30.2
T1 sequence (O00481 322-513 limits assumed): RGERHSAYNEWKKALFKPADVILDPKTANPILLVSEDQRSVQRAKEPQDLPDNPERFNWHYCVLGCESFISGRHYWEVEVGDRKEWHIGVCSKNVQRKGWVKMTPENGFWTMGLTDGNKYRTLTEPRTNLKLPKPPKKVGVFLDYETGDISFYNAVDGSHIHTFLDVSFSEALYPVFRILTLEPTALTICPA
T1 sequence (Q7KYR7 316-527 limits assumed): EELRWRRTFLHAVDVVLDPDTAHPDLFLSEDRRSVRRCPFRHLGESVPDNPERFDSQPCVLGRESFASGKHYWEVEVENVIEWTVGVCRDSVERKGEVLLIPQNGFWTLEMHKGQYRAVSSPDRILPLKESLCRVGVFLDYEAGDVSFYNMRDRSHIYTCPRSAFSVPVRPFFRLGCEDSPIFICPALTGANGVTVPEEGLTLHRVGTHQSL
Experimental: ITC binding fits were calculated using MicroCal Analysis software.
For HMBPP binding to the preconditioned BTN2A1 B30.2 and BTN3A1 B30.2 complex, BTN2A1 B30.2 (20 µM) and BTN3A1 B30.2 (10 µM) were incubated in the buffer at a 2:1 ratio and loaded into the sample cell, and the injection syringe was filled with buffer containing 100 µM HMBPP.
For DMAPP/IPP binding to the preconditioned BTN2A1 B30.2 and BTN3A1 B30.2 complex, BTN2A1 B30.2 (200 µM) and BTN3A1 B30.2 (100 µM) were incubated in buffer at a 2:1 ratio and loaded into the sample cell, and the injection syringe was filled with buffer containing 1 mM DMAPP/IPP.
For other pAgs, their concentrations were adjusted to 500 µM, and BTN2A1 B30.2 and BTN3A1 B30.2 were adjusted to 100 µM and 50 µM at a 2:1 ratio.

MIA PaCa-2 cells = test: Cell killing assay: cytotoxicity of Vγ9Vδ2 T cells towards pAg- or zoledronate-treated MIA PaCa-2 cells (luciferase); type: cell-based, human; conditions: Homo sapiens, MIA PaCa-2, Supplementary Table 4; read-out: EC50 (M) for MIA PaCa-2 cell lysis mediated by HMBPP analogs and Vγ9Vδ2 T cells
Experimental: as §1, §2

Molecule	Kd [2] [M]	EC50 (MIA PaCa-2 cells) [M]	further results
2A1 WT	–	–	Mean response (Fig. 6h, Dunnett test details) ([1]; Row 1 (-6.4)): 1.143; Mean response (Fig. 6h, Dunnett test details) ([1]; Row 2 (-5.8)): 3.802; Mean response (Fig. 6h, Dunnett test details) ([1]; Row 3 (-5.2)): 14.85; Mean response (Fig. 6h, Dunnett test details) ([1]; Row 4 (-4.6)): 21.48; Mean response (Fig. 6h, Dunnett test details) ([1]; Row 5 (-4)): 24.98; Response, individual replicates (Fig. 6h source data) ([1]; x = -4 (log concentration; stimulant and units not given)): 22.8101 and 22.1668 and 28.5464 and 27.6474 and 25.9163 and 22.7794; Response, individual replicates (Fig. 6h source data) ([1]; x = -4.6 (log concentration; stimulant and units not given)): 21.6162 and 22.5956 and 18.2653 and 23.7306 and 21.555 and 21.0967; Response, individual replicates (Fig. 6h source data) ([1]; x = -5.2 (log concentration; stimulant and units not given)): 14.9991 and 16.3572 and 11.8762 and 12.0557 and 14.1862 and 19.6027; Response, individual replicates (Fig. 6h source data) ([1]; x = -5.8 (log concentration; stimulant and units not given)): 3.9587 and 2.199 and 2.053 and 2.932 and 3.753 and 7.914; Response, individual replicates (Fig. 6h source data) ([1]; x = -6.4 (log concentration; stimulant and units not given)): 1.264 and 0.797 and 0.5929 and 0.7387 and 0.7679 and 2.697
CC/C(=C\COP(=O)(O)OP(=O)(O)O)CO [Compound 4, (E)-4-hydroxy-3-ethyl-but-2-enyl diphosphate]	3.26e-07	4.5e-07	–
C=CC/C(=C\COP(=O)(O)OP(=O)(O)O)CO [Compound 5, (E)-3-(hydroxymethyl)hexa-2,5-dienyl diphosphate]	2.06e-07	1.3e-08	–
C/C(=C\COP(=O)(O)OP(=O)(O)O)C(C)O (centres unmarked) [Compound 6, (E)-4-hydroxy-3-methylpent-2-en-1-yl diphosphate]	1.69e-05	1.8e-06	–
C/C(=C\COP(=O)(O)CP(=O)(O)O)CO [Compound 7, (E)-((hydroxy((4-hydroxy-3-methylbut-2-en-1-yl)oxy)phosphoryl)methyl)phosphonic acid]	4.62e-05	1.46e-06	–
C/C(=C\COP(=O)(O)C(Cl)(Cl)P(=O)(O)O)CO [Compound 8, (E)-(dichloro(hydroxy((4-hydroxy-3-methylbut-2-en-1yl)oxy)phosphoryl)methyl diphosphate]	1.25e-05	9.28e-07	–
C/C(=C\COP(=O)(O)C(Cl)P(=O)(O)O)CO (centres unmarked) [Compound 9, (E)-(chloro(hydroxy((4-hydroxy-3-methylbut-2-en-1-yl)oxy)phosphoryl)methyl)phosphonic acid]	4.97e-05	3.5e-05	–
C/C(=C\COP(=O)(O)C(F)(F)P(=O)(O)O)CO [Compound 10, (E)-(difluoro(hydroxy((4-hydroxy-3-methylbut-2-en-1-yl)oxy)phosphory)methyl)phosphonic acid]	1.15e-05	5.33e-06	–
C/C(=C\COP(=O)(O)C(F)P(=O)(O)O)CO (centres unmarked) [Compound 11, (E)-(fluoro(hydroxy((4-hydroxy-3-methylbut-2-en-1-yl)oxy)phosphoryl)methyl)phosphonic acid]	2.81e-05	8.71e-07	–

Source: publication PMC10533412, “Phosphoantigens glue butyrophilin 3A1 and 2A1 to activate Vγ9Vδ2 T cells” (Nature, 2023)
